Results published in ChEMBL document CHEMBL3792299, “Novel tricyclics (e.g., GSK945237) as potent inhibitors of bacterial type IIA topoisomerases” (Bioorg Med Chem Lett, 2016).
≈ marks a conversion by molar mass, not a printed value. Calls of active or inactive are those of the source. The rule behind the calls is not given here.

Experiments:
[1] = Inhibition of Haemophilus influenzae DNA gyrase-dependent DNA replication by scintillation proximity assay
Streptococcus pneumoniae [2] = assay: Antibacterial activity against quinolone-resistant Streptococcus pneumoniae TPS3 after 18 to 24 hrs by broth microdilution method; assay type: functional
Haemophilus influenzae = assay: Antibacterial activity against Haemophilus influenzae H128 after 18 to 24 hrs by broth microdilution method; assay type: functional
Staphylococcus aureus = assay: Antibacterial activity against Staphylococcus aureus WCUH 29 after 18 to 24 hrs by broth microdilution method; assay type: functional
[3] = Cmax in cynomolgus monkey at 5 mg/kg, po administered as single dose by LC/MS/MS analysis; assay type: ADME, organism-based, Macaca fascicularis; parameters: dose 5 mg/kg, route oral; settings: in vivo
[4] = Plasma protein binding in Sprague-Dawley rat at 0.5 to 5 ug/ml by equilibrium dialysis method; assay type: ADME, cell-free; settings: read-out: PPB (converted)
[5] = Cmax in Sprague-Dawley rat at 100 mg/kg, po bid by LC/MS/MS analysis; assay type: ADME, organism-based; parameters: dose 100 mg/kg, route oral; settings: in vivo
Streptococcus pneumoniae [6] = assay: Antibacterial activity against quinolone-resistant Streptococcus pneumoniae TPS3 in rat respiratory tract infection model assessed as decrease in bacterial burden in lung at 50 mg/kg po bid administered through gavage at 1, 7, 24,31 hrs post infection measured after 48 hrs; assay type: functional, organism-based
[7] = Volume of distribution at steady state in Sprague-Dawley rat at 3 mg/kg, iv administered as single dose by LC/MS/MS analysis; assay type: ADME, organism-based; settings: in vivo, read-out: Vdss
Canis familiaris [8] = assay: Blood clearance in Beagle dog at 3 mg/kg, iv administered as single dose by LC/MS/MS analysis relative to hepatic blood flow; assay type: ADME, organism-based, Canis lupus familiaris, Liver; settings: in vivo
[9] = Terminal half life in cynomolgus monkey at 3 mg/kg, iv administered as single dose by LC/MS/MS analysis; assay type: ADME, organism-based, Macaca fascicularis; settings: in vivo, read-out: beta t1/2 (converted)
[10] = Terminal half life in Beagle dog at 3 mg/kg, iv administered as single dose by LC/MS/MS analysis; assay type: ADME, organism-based, Canis lupus familiaris; settings: in vivo, read-out: beta t1/2 (converted)
[11] = Plasma protein binding in Beagle dog at 0.5 to 5 ug/ml by equilibrium dialysis method; assay type: ADME, cell-free, Canis lupus familiaris; settings: read-out: PPB (converted)
Canis familiaris [12] = assay: Renal clearance in Beagle dog at 3 mg/kg, iv administered as single dose by LC/MS/MS analysis relative to total clearance; assay type: ADME, organism-based, Canis lupus familiaris, Kidney; settings: in vivo
Rattus norvegicus [13] = assay: AUC in Sprague-Dawley rat at 5 mg/kg, po administered as single dose by LC/MS/MS analysis; assay type: ADME, organism-based; settings: in vivo
[14] = biological target: Voltage-gated inwardly rectifying potassium channel KCNH2 (Homo sapiens, UniProt Q12809); assay: Inhibition of human ERG
Liver microsome [15] = assay: Intrinsic clearance in Sprague-Dawley rat liver microsomes assessed per gram of liver at 0.5 uM by LC/MS/MS analysis; assay type: ADME
Cynomolgus monkey [16] = assay: Blood clearance in cynomolgus monkey at 3 mg/kg, iv administered as single dose by LC/MS/MS analysis relative to hepatic blood flow; assay type: ADME, organism-based, Macaca fascicularis, Liver; settings: in vivo
Cynomolgus monkey [17] = assay: AUC in cynomolgus monkey at 5 mg/kg, po administered as single dose by LC/MS/MS analysis; assay type: ADME, organism-based, Macaca fascicularis; settings: in vivo
Liver microsome [18] = assay: Intrinsic clearance in Beagle dog liver microsomes assessed per gram of liver at 0.5 uM by LC/MS/MS analysis; assay type: ADME, Canis lupus familiaris
[19] = Volume of distribution at steady state in cynomolgus monkey at 3 mg/kg, iv administered as single dose by LC/MS/MS analysis; assay type: ADME, organism-based, Macaca fascicularis; settings: in vivo, read-out: Vdss
Streptococcus pneumoniae [20] = assay: Antibacterial activity against quinolone-resistant Streptococcus pneumoniae TPS3 in rat respiratory tract infection model assessed as decrease in bacterial burden in lung at 100 mg/kg, po bid administered through gavage at 1, 7, 24,31 hrs post infection measured after 48 hrs; assay type: functional, organism-based
Rattus norvegicus [21] = assay: Oral bioavailability in Sprague-Dawley rat at 5 mg/kg administered as single dose by LC/MS/MS analysis; assay type: ADME, organism-based; settings: in vivo
Cynomolgus monkey [22] = assay: Oral bioavailability in cynomolgus monkey at 5 mg/kg administered as single dose by LC/MS/MS analysis; assay type: ADME, organism-based, Macaca fascicularis; settings: in vivo
[23] = Terminal half life in Sprague-Dawley rat at 3 mg/kg, iv administered as single dose by LC/MS/MS analysis; assay type: ADME, organism-based; settings: in vivo, read-out: beta t1/2 (converted)
[24] = Plasma protein binding in cynomolgus monkey at 0.5 to 5 ug/ml by equilibrium dialysis method; assay type: ADME, cell-free, Macaca fascicularis; settings: read-out: PPB (converted)
Cynomolgus monkey [25] = assay: Renal clearance in cynomolgus monkey at 3 mg/kg, iv administered as single dose by LC/MS/MS analysis relative to total clearance; assay type: ADME, organism-based, Macaca fascicularis, Kidney; settings: in vivo
[26] = Intrinsic clearance in cynomolgus monkey liver microsomes assessed per gram of liver at 0.5 uM by LC/MS/MS analysis; assay type: ADME, Macaca fascicularis
Rattus norvegicus [27] = assay: Blood clearance in Sprague-Dawley rat at 3 mg/kg, iv administered as single dose by LC/MS/MS analysis relative to hepatic blood flow; assay type: ADME, organism-based, Liver; settings: in vivo
Rattus norvegicus [28] = assay: AUC in Sprague-Dawley rat at 100 mg/kg, po bid by LC/MS/MS analysis; assay type: ADME, organism-based; settings: in vivo
Canis familiaris [29] = assay: Oral bioavailability in Beagle dog at 5 mg/kg administered as single dose by LC/MS/MS analysis; assay type: ADME, organism-based, Canis lupus familiaris; settings: in vivo
[30] = Volume of distribution at steady state in Beagle dog at 3 mg/kg, iv administered as single dose by LC/MS/MS analysis; assay type: ADME, organism-based, Canis lupus familiaris; settings: in vivo, read-out: Vdss
[31] = Cmax in Beagle dog at 5 mg/kg, po administered as single dose by LC/MS/MS analysis; assay type: ADME, organism-based, Canis lupus familiaris; parameters: dose 5 mg/kg, route oral; settings: in vivo
[32] = Cmax in Sprague-Dawley rat at 5 mg/kg, po administered as single dose by LC/MS/MS analysis; assay type: ADME, organism-based; parameters: dose 5 mg/kg, route oral; settings: in vivo
Canis familiaris [33] = assay: AUC in Beagle dog at 5 mg/kg, po administered as single dose by LC/MS/MS analysis; assay type: ADME, organism-based, Canis lupus familiaris; settings: in vivo

Sequence of Voltage-gated inwardly rectifying potassium channel KCNH2 (Q12809 whole entry): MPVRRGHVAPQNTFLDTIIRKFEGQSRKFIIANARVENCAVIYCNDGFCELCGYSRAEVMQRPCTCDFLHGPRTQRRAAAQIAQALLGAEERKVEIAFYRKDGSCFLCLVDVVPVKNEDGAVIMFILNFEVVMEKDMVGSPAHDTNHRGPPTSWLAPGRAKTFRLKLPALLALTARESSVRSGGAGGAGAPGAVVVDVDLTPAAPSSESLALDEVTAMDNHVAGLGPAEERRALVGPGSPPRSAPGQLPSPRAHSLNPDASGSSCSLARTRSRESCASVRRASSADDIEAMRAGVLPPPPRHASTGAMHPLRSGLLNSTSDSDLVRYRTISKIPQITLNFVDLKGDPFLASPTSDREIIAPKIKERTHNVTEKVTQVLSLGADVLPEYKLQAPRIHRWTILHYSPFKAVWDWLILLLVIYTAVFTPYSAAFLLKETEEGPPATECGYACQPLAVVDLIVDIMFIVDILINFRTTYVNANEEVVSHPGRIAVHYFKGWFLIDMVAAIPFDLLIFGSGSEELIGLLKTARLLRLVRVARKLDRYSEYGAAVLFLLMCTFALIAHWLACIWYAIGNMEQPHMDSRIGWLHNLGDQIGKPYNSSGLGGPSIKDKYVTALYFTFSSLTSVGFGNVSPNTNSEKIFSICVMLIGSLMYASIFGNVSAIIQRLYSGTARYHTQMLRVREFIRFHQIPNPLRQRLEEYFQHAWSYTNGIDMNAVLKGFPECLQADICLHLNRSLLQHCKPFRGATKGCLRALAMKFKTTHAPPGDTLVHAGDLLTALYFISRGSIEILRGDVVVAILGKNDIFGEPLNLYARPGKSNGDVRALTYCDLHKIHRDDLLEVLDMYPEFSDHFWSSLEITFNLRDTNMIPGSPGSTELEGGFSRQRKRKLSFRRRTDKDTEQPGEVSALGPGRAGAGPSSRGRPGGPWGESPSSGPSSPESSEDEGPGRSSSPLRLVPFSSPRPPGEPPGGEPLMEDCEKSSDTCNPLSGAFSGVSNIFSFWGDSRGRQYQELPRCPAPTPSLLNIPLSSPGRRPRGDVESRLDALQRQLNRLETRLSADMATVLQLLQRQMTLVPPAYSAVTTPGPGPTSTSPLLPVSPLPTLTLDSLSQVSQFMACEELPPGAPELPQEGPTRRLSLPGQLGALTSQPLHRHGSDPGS

Molecule Cc1cc(F)c2c3c1ccc(=O)n3C[C@H]2CN1CCC(NCc2cc3c(nn2)OCCO3)CC1 has an IC50 [1] of 0.099 µg/mL (≈ 0.213 µM), an MIC (Streptococcus pneumoniae [2]) of 0.5 µg/mL (≈ 1.07 µM) and an MIC (Haemophilus influenzae) of 2 µg/mL (≈ 4.3 µM). The MIC (Staphylococcus aureus) was 0.06 µg/mL (≈ 0.129 µM).
For O=C1CC(NCc2cc3c(nn2)OCCO3)CCN1C[C@@H]1Cn2c(=O)ccc3ccc(F)c1c32 (stereo partly specified), the IC50 [1] was 0.166 µg/mL (≈ 0.357 µM), the MIC (Streptococcus pneumoniae [2]) was 16 µg/mL (≈ 34.4 µM) and the MIC (Haemophilus influenzae) was > 16 µg/mL. It also gave an MIC (Staphylococcus aureus) of 16 µg/mL (≈ 34.4 µM).
In the case of O=c1ccc2cccc3c2n1C[C@H]3CN1CCC(NCc2cc3c(nn2)OCCO3)CC1, the MIC (Streptococcus pneumoniae [2]) is reported as 1 µg/mL (≈ 2.31 µM), the MIC (Haemophilus influenzae) is reported as 2 µg/mL (≈ 4.61 µM) and the MIC (Staphylococcus aureus) is reported as 0.5 µg/mL (≈ 1.15 µM).
For O=c1ccc2ccc(F)c3c2n1C[C@H]3CN1CCCC(CNCc2cc3c(nn2)OCCO3)C1 (stereo partly specified), the IC50 [1] was 0.666 µg/mL (≈ 1.43 µM), the MIC (Streptococcus pneumoniae [2]) was 4 µg/mL (≈ 8.59 µM) and the MIC (Haemophilus influenzae) was > 16 µg/mL. For the same molecule, the MIC (Staphylococcus aureus) was 1 µg/mL (≈ 2.15 µM).
In the case of N#Cc1ccc2ccc(=O)n3c2c1[C@H](CN1CCC(NCc2cc4c(nn2)OCCO4)CC1)C3, the IC50 [1] is reported as 0.062 µg/mL (≈ 0.135 µM), the MIC (Streptococcus pneumoniae [2]) is reported as 0.5 µg/mL (≈ 1.09 µM) and the MIC (Haemophilus influenzae) is reported as 2 µg/mL (≈ 4.36 µM). The MIC (Staphylococcus aureus) was 0.25 µg/mL (≈ 0.545 µM).
In the case of O=c1ccc2ccc(F)c3c2n1C[C@@H]3CN1CCC(NCc2cc3c(nn2)OCCO3)CC1, the IC50 [1] is reported as 0.121 µg/mL (≈ 0.268 µM), the MIC (Streptococcus pneumoniae [2]) is reported as 8 µg/mL (≈ 17.7 µM) and the MIC (Haemophilus influenzae) is reported as > 16 µg/mL. It also gave an MIC (Staphylococcus aureus) of 2 µg/mL (≈ 4.43 µM).
In the case of Cc1ccc2ccc(=O)n3c2c1[C@H](CN1CCC(NCc2cc4c(nn2)OCCO4)CC1)C3, the IC50 [1] is reported as 0.076 µg/mL (≈ 0.17 µM), the MIC (Streptococcus pneumoniae [2]) is reported as 1 µg/mL (≈ 2.23 µM) and the MIC (Haemophilus influenzae) is reported as 4 µg/mL (≈ 8.94 µM). For the same molecule, the MIC (Staphylococcus aureus) was 0.25 µg/mL (≈ 0.559 µM).
With COc1ccc2ccc(=O)n3c2c1[C@H](CN1CCC(NCc2cc4c(nn2)OCCO4)CC1)C3 the IC50 [1] was 0.276 µg/mL (≈ 0.595 µM), the MIC (Streptococcus pneumoniae [2]) was 8 µg/mL (≈ 17.3 µM) and the MIC (Haemophilus influenzae) was 16 µg/mL (≈ 34.5 µM). The MIC (Staphylococcus aureus) was 2 µg/mL (≈ 4.31 µM).
Work on O=c1cnc2ccc(F)c3c2n1C[C@H]3CN1CCC(NCc2cc3c(nn2)OCCO3)CC1 yielded an IC50 [1] of 0.036 µg/mL (≈ 0.0796 µM), an MIC (Haemophilus influenzae) of 0.5 µg/mL (≈ 1.1 µM) and an MIC (Staphylococcus aureus) of 0.06 µg/mL (≈ 0.133 µM).
Molecule O=c1ccc2ccc(F)c3c2n1C[C@H]3CN1CCC(NCc2cc3c(nn2)OCCO3)CC1 [GSK-945237] has an IC50 [1] of 0.034 µg/mL (≈ 0.0753 µM), an MIC (Streptococcus pneumoniae [2]) of 0.25 µg/mL (≈ 0.554 µM) and a Cmax [3] of 210 ng/mL. For the same molecule, the fraction unbound [4] was 0.367, the Cmax [5] was 3000 ng/mL and the Activity (Streptococcus pneumoniae [6]) was “Active”. It also gave a Vd [7] of 7.2 L/kg, an MIC (Haemophilus influenzae) of 1 µg/mL (≈ 2.21 µM) and a CL (Canis familiaris [8]) of 40%. For the same molecule, the half-life [9] was 7.6 h, the half-life [10] was 8.8 h and the fraction unbound [11] was 0.53. For the same molecule, the CL (Canis familiaris [12]) was 74%, the AUC (Rattus norvegicus [13]) was 290 ng·h/mL and the IC50 [14] was 238 µM. The CLint (Liver microsome [15]) was 0.7 mL/min/g, the CL (Cynomolgus monkey [16]) was 40% and the AUC (Cynomolgus monkey [17]) was 1190 ng·h/mL. The CLint (Liver microsome [18]) was < 0.6 mL/min/g, the Vd [19] was 8.2 L/kg and the MIC (Staphylococcus aureus) was 0.06 µg/mL (≈ 0.133 µM). The Activity (Streptococcus pneumoniae [20]) was “Active”, the F (Rattus norvegicus [21]) was 22% and the F (Cynomolgus monkey [22]) was 34%. It also gave a half-life [23] of 1.9 h, a fraction unbound [24] of 0.576 and a CL (Cynomolgus monkey [25]) of 45%. For the same molecule, the CLint [26] was 1.5 mL/min/g, the CL (Rattus norvegicus [27]) was 100% and the AUC (Rattus norvegicus [28]) was 30 ug.hr/ml/day. For the same molecule, the F (Canis familiaris [29]) was 100%, the Vd [30] was 6.1 L/kg and the Cmax [31] was 1070 ng/mL. For the same molecule, the Cmax [32] was 40 ng/mL and the AUC (Canis familiaris [33]) was 6050 ng·h/mL.
With COc1c(N2C[C@@H]3CCCN[C@@H]3C2)c(F)cc2c(=O)c(C(=O)O)cn(C3CC3)c12 [MOXIFLOXACIN] the MIC (Streptococcus pneumoniae [2]) was 4 µg/mL (≈ 9.96 µM) and the Activity (Streptococcus pneumoniae [20]) was “inactive”.
